Columns and labels:
As #1989 = test: RIA (Assay 2): competition with iodinated inhibin for As #1989; type: binding, rabbit; settings: for As#1989 ED50: biotinylated peptides, 50% fall in binding of iodinated inhibin
Text: (§1) This assay was used to determine which peptides compete with iodinated 30 kDa inhibin for As #41, #128 and #1989 (used in the original inhibin RIA, Lapphorn et al., 1989, supra) in a RIA format. This assay identifies those peptides that bind to inhibin-binding antibodies in the antiserum and provides a stricter affinity and specificity assessment in identifying the appropriate epitopes than that found with Assay 1. The competition between peptide and hr-inhibin (used as the standard) was assessed from their ED50 values. The RIA consisted of the competition of iodinated inhibin and either hr-inhibin reference preparation, individual peptides or pools from the 4 peptide regions, with As #41, #128 and in some instances, As #1989. The peptides/inhibin/iodinated inhibin and antisera (at a prescribed dilution) were incubated overnight at 4° C. using standard methodologies. The antibody-bound iodinated inhibin was immunoprecipitated with the addition of an anti-sheep IgG serum raised in goats and the radioactivity was measured in a gamma counter. The concentration of peptide that gives a 50% fall in binding of iodinated inhibin (ED50) was determined and this value was used to give a measure of the affinity of the peptide for the antiserum. This methodology consisted of determining the ED50 of the peptide in the RIA using iodinated human recombinant inhibin as tracer with either As #41, As #128 or As #1989 and graded doses of either hr-inhibin or peptide as described in Example 2.

As #128 [1] = test: RIA (Assay 2): competition with iodinated inhibin for As #128; type: binding, sheep; settings: for As#128 ED50: biotinylated peptides, 50% fall in binding of iodinated inhibin
Text: as §1

R1 [2] = test: Solid phase binding of Set 2 peptides to R1; design: species or system mouse; key: +++; ΦΦΦ strong effect; +, Φ weak effect; settings: Set 2 biotinylated peptides 24 micromoles/L
Protocol: (§2) The binding of the 41 biotinylated peptides as set forth in Table 7 (peptide set 2) to the mouse monoclonal antibodies (PO# series) was assessed as follows:
(§3) a) Assay 1 (solid phase assay). The assay was undertaken as outlined in assay 1 of Example 2. Biotinylated peptides (24 micromoles/L) were initially bound to streptavidin-coated plates. Mab (at an appropriate dilution to give a detectable response, 1:1000, 1:10000 dilution of the culture medium) was then added and incubated for 1.5 hr. The amount of bound Mab was determined using horseradish peroxidase-bound anti-mouse IgG serum and enzyme activity detected at 450-630 nm using an ELISA plate reader.

PO-6 = test: Solid phase binding of Set 2 peptides to PO-6; design: species or system mouse; key: +++; ΦΦΦ strong effect; +, Φ weak effect; settings: Set 2 biotinylated peptides 24 micromoles/L
Protocol: as §2, §3

PO-22 [3] = test: RIA of Set 2 peptides with PO-22; type: binding, mouse; design: key: ΦΦΦ strong effect; +, Φ weak effect; a) limited binding; settings: Set 2 biotinylated peptides 0.8 and 0.08 micromoles/L
Protocol: (§4) The binding of the 41 biotinylated peptides as set forth in Table 7 (peptide set 2) to the mouse monoclonal antibodies (PO# series) was assessed as follows: b) Assay 2 (radioimrnunoassay, RIA) using iodinated human inhibin A as tracer. Mabs (at an appropriate dilution, see above) were incubated with iodinated human recombinant inhibin in the presence of biotinylated peptides (0.8 and 0.08 micromoles/L final concentration) overnight at room temperature.

R1 [4] = test: RIA of Set 2 peptides with R1; type: binding, mouse; design: key: ΦΦΦ strong effect; +, Φ weak effect; a) limited binding; settings: Set 2 biotinylated peptides 0.8 and 0.08 micromoles/L
Protocol: as §4

PO-22 [5] = test: Solid phase binding of Set 2 peptides to PO-22; design: species or system mouse; key: +++; ΦΦΦ strong effect; +, Φ weak effect; settings: Set 2 biotinylated peptides 24 micromoles/L
Protocol: as §2, §3

PO-12 [6] = test: RIA of Set 2 peptides with PO-12; type: binding, mouse; design: key: ΦΦΦ strong effect; +, Φ weak effect; a) limited binding; settings: Set 2 biotinylated peptides 0.8 and 0.08 micromoles/L
Protocol: as §4

PO-14 [7] = test: Solid phase binding of Set 2 peptides to PO-14; design: species or system mouse; key: +++; ΦΦΦ strong effect; +, Φ weak effect; settings: Set 2 biotinylated peptides 24 micromoles/L
Protocol: as §2, §3

As #41 [8] = test: RIA (Assay 2): competition with iodinated inhibin for As #41; type: binding, sheep; settings: for As#41 ED50: biotinylated peptides, 50% fall in binding of iodinated inhibin
Text: as §1

PO-14 [9] = test: RIA of Set 2 peptides with PO-14; type: binding, mouse; design: key: ΦΦΦ strong effect; +, Φ weak effect; a) limited binding; settings: Set 2 biotinylated peptides 0.8 and 0.08 micromoles/L
Protocol: as §4

PO-12 [10] = test: Solid phase binding of Set 2 peptides to PO-12; design: species or system mouse; key: +++; ΦΦΦ strong effect; +, Φ weak effect; settings: Set 2 biotinylated peptides 24 micromoles/L
Protocol: as §2, §3

As #41 [11] = test: Solid phase assay (Assay 1): biotinylated peptides binding to As #41; design: species or system sheep; key: +++++ major contribution; + minor contribution; settings: relative contribution
Protocol: (§5) This assay is a broad screen of the binding of the 31 biotinylated peptides to As #41 and #128 as recommended by Chiron Mimotopes.
(§6) The biotinylated peptides were initially bound to streptavidin-coated 96-well plates (2 hours at room temperature), antiserum #41 or #128 was then added (2 hours room temperature) to bind to the peptides. Detection of antiserum binding was assessed by a further incubation with an anti-ovine IgG serum labeled with the enzyme, horseradish peroxidase. The enzyme activity was assessed by conversion of a colorless substrate to a colored product that is detected in a spectrophotometer. The enzyme activity measured was proportional to the extent of the binding of the peptides.

As#128 and/or As#41 = test: Inhibin IFMA with pre-immunoabsorption of antisera by peptides; type: binding, sheep; settings: As#128 coating antibody pre-absorbed with peptide(s); As#41 label: buffer
Text: This IFMA is used in the measurement of inhibin in serum from women with ovarian cancer and is presented at this juncture as a reference to the following procedures. The IFMA is a sandwich antibody assay in 96-well microtiter plates. The capture antiserum is As #128 and the labeled antiserum As #41, both raised in sheep to the alpha subunit of human inhibin. Sheep As #128 was also boosted with human recombinant 30-kDa inhibin. The microtiter plates were coated with a caprylic acid IgG cut of antiserum #128. Inhibin standard and serum samples were added and incubated for 2 hours at room temperature. A biotinylated antiserum (As #41) which has been immunopurified by absorption to a column of bovine (alpha)C subunit fusion protein (as previously described, Robertson et al., 1997, supra) followed by elution with a glycine (pH 2.5) buffer, was added to bind to the antibody-bound inhibin (2-hour incubation at room temperature). Fluorescently (Eu) labeled-streptavidin that has a high affinity for biotin is added (30 minutes at room temperature) and the Eu-bound streptavidin is counted in a time-resolved fluorimeter. The Eu measured is proportional to the inhibin bound by the two antisera.
As another approach, the competition of combinations of peptides at a maximum saturating dose was assessed in the IFMA (FIGS. 7-9). […] This suppression in binding provides a measure of the contribution of that particular epitope to the assay.

As #128 [12] = test: Competitive 2-site assay (Assay 3), approach (a); type: binding, sheep; design: key: +++++ major contribution; + minor contribution; settings: relative contribution
Text: This assay was developed to establish the relative importance of the individual peptides and peptide pools (identified as epitopes in Assays 1 and 2) in the sandwich antibody format used in the IFMA with As #128 as capture antibody and As #41 as detection antibody. Two approaches (a and b) were considered, Approach (a) explores the cross-reaction of peptides with inhibin for the immobilized As #128 while Approach (b) assesses their cross-reaction with inhibin for As #41.
Approach (a). The biotinylated peptide pools and/or individual peptides at various concentrations, in combination with a fixed concentration of hr-inhibin, were incubated for 2 hours with As #128-coated plates. The plates were then washed to remove any unbound material. Iodinated As #41 was then added to bind to the bound hr-inhibin, the plates washed and the bound radioactivity was measured in a gamma counter. The counts measured were proportional to the amount of hr-inhibin bound to both antisera. The possibility that a peptide contained two epitopes capable of linking As #128 and #41 was assessed in the absence of added hr-inhibin.

As #128 [13] = test: Solid phase assay (Assay 1): biotinylated peptides binding to As #128; design: species or system sheep; key: +++++ major contribution; + minor contribution; settings: relative contribution
Protocol: as §5, §6

As #41 [14] = test: Two-site assay design variation: biotinylated #41 pre-incubated with peptide; type: binding, sheep; settings: non-biotinylated peptides 0.1-1.0 micromolar
Protocol: (iv) In a variation to the above design, biotinylated #41 was pre-incubated with peptide (0.1-1.0 micromolar) for 1.5 hours at room temperature and then added to the As #128 coated plate pre-bound with inhibin as for (i)-(iii). […] Combination of peptide #5 and #30 led to 74% decrease.

As #128 [15] = test: Two-site assay design: peptides pre-incubated with As #128 coated plate; type: binding, sheep; settings: non-biotinylated peptides 0.1-1 micromolar
Protocol: On the other hand, the IFMA design is based on the total amount of inhibin bound which is a combination of both antibody affinity and concentration. In order to establish to what extent epitopes to these peptides contribute to the overall IFMA, the following two-site assay designs were used.
(i) Peptides #5, #20 and #30 (0, 0.1-1 micromolar) were incubated with the As #128 coated plate for 1.5 hours at RT and the wells washed. The highest dose of peptide used was saturating.
(ii) Hr-Inhibin was then added as a saturating or near saturating dose to the As #128 coated plate and incubated for 2 hours at room temperature and the plate washed.
(iii) Biotinylated As #41 was added to the above wells and incubated for 2 hours at RT. Plates were then washed and counted.

[16] = non-biotinylated peptides, hr-inhibin A as standard

| R1 SPB (R1 [2]) | PO-6 SPB (PO-6) | PO-22 SPB (PO-22 [5]) | #128 Antibody screen Assay 1 (As #128 [13]) | Substance | As#1989 ED50 (As #1989) | As#128 ED50 (As #128 [1]) | PO-22 RIA (PO-22 [3]) | As#41 ED50 (As #41 [8]) | #128 2-site competitive assay Assay 3 (As #128 [12]) | also measured |
| --- | --- | --- | --- | --- | --- | --- | --- | --- | --- | --- |
| +++ | +++ | +++ | – | SGSG STPLMSWPWSPSAL [Peptide 3] | >2500 nM | 38000 nM | ΦΦΦ | – | – | R1 RIA (R1 [4]): ΦΦΦ |
| – | – | – | – | SGSG PYSLLPGAQPCCAA [Peptide 24] | >2500 nM | 900 nM | – | 6200 nM | – | PO-12 RIA (PO-12 [6]): ΦΦΦ; PO-14 SPB (PO-14 [7]): +++; PO-14 RIA (PO-14 [9]): ΦΦΦ; PO-12 SPB (PO-12 [10]): +++ |
| – | – | – | – | SGSG DGGYSFKYETVPNL [Peptide 31] | >2500 nM | 1400 nM | – | 2400 nM | – | #41 Antibody screen Assay 1 (As #41 [11]): + |
| – | – | – | + | SGSG PNLSLPVPGAPPTP [Peptide 20] | >2500 nM | 20 nM | – | 3600 nM | + | ED50 values As#1989 (As #1989; [16]): >5000 nM; % suppression at 2ng inhibin (As#128 and/or As#41): 13%; ED50 values As#128 (As #128 [1]; [16]): 150 nM; ED50 values As#41 (As #41 [8]; [16]): >5000 nM; inhibition with biotinylated #41 pre-incubated with peptide (As #41 [14]): no inhibition; suppression in binding with As #128 (As #128 [15]): 23% |
| + | +++ | +++ | + | SGSG MSWPWSPSALRLLQ [Peptide 4] | >2500 nM | 3800 nM | ΦΦΦ | 1300 nM | + | – |

— patent US7511123B2, “Immuno-interactive fragments of the alpha-C subunit of inhibin” (Prince Henry's Institute of Medical Research, priority 1999, dated 2009)
